Patent US6103761A, “Agents acting at cholecystokinin receptors” (Warner-Lambert Company, priority 1994, dated 2000)

These compounds were tested against T1, CCK-B receptor (Mus musculus, UniProt P56481) (assay: Displacement of tritiated-pentagastrin binding to mouse cerebral cortical membranes (CCK receptor binding)). Settings: displacement of 2 nM tritiated-pentagastrin, Ki by Cheng-Prusoff equation, read-out: Ki, Binding Affinity CCK-B.
T1 construct: from tissue; host or cells: cerebral cortex membranes of male CFLP mice
T1 sequence (P56481 1-453): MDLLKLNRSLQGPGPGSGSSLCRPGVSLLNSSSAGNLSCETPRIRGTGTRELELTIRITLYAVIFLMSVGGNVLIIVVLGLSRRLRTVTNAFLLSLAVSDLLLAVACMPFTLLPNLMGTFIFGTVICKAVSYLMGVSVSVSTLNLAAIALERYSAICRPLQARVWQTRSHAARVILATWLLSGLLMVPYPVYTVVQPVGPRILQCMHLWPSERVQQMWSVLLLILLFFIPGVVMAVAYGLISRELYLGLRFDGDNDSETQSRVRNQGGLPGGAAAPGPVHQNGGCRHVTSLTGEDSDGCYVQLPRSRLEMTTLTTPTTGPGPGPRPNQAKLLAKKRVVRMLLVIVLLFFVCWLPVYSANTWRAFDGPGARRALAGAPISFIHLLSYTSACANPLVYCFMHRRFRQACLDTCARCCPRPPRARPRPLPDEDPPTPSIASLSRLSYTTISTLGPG
Parameters: species or system male CFLP mice
Description: The biological activity of compounds of the present invention was evaluated employing an initial screening test which rapidly and accurately measured the binding of the tested compound to known CCK receptor sites. […] (See Hays, et al., Neuropeptides 1980;1:53-62; and Satuer, et al., Science 1980;208:1155-6.)
In this screening test, the cerebral cortices taken from male CFLP mice weighing between 30-40 g were dissected on ice, weighed, and homogenized in 10 volumes of 50 mM Tris-HCl buffer (pH 7.4 at 0-4° C.). The resulting suspension was centrifuged, the supernate was discarded, and the pellet was washed by resuspension in Tris-HCl buffer followed by recentrifugation. The final pellet was resuspended in 20 volumes of […] buffer (pH 7.2 at 23° C.) containing 130 mM NaCl, […], […], […], 5 mg/mL bovine albumin, and bacitracin (0.25 mg/mL).
In saturation studies, cerebral cortical membranes were incubated at 23° C. for 120 minutes in a final volume of 500 μL of Hepes incubation buffer (pH 7.2) together with 0.2-20 nM tritiated-pentagastrin (Amersham International, England).
In the displacement experiments, membranes were incubated with a single concentration (2 nM) of ligand, together with increasing concentrations ([…]) of competitive test compound. In each case, the nonspecific binding was defined as that persisting in the presence of the unlabeled octapeptide CCK26-33 (10^-6 M).
Following incubation, radioactivity bound to membranes was separated from that free in solution by rapid filtration through Whatman GF/B filters and washed three times with 4 mL of ice cold Tris-HCl buffer. Filters from samples incubated with tritiated-pentagastrin were placed in polyethylene vials with 4 mL of scintillation cocktail, and the radioactivity was estimated by liquid scintillation spectrometry (efficiency 47%-52%).
The specific binding to CCK receptor sites was defined as the total bound tritiated-pentagastrin minus the amount of tritiated-pentagastrin bound in the presence of 10^-6 octapeptide, CCK26-33.
Saturation curves for specific tritiated-pentagastrin binding to mouse cortical membranes were analyzed by the methods of Scatchard (Ann New York Acad Sci 1949;51:660-72, and Hill, J Physiol 1910;40:IV-VIII), to provide estimates for the maximum number of binding sites (Bmax) and the equilibrium dissociation constant ([…]).
In displacement experiments, inhibition curves were analyzed by either logit-log plots or the iterative curve fitting computer program ALLFIT (DeLean, Munson, Redbard, 1978) to provide estimates of the IC50 and nH (apparent Hill coefficient) values). (IC50 values were defined as the concentration of test compound required to produce 50% inhibition of specific binding.)
The inhibition constant (Ki) of the test compound was then calculated according to the Cheng-Prusoff equation: [formula] where [L] is the concentration of radiolabel and Ka is the equilibrium dissociation constant.
In the case of `O=C(Nc1ccc(Cl)cc1)N[C@H](c1ccccc1)[C@H](NC(=O)Nc1ccc(C(F)(F)F)cc1)c1ccccc1` (relative stereo) [Example 10, [R-(R*,R*)] and [S-(R*,R*)]-N-(4-chlorophenyl)-N'-[1,2-diphenyl-2-[[[[4-(trifluoromethyl)phenyl]amino]-carbonyl]amino]ethyl]-urea], the Ki is reported as 371 nM.
Work on `Cc1ccc(S(=O)(=O)NC(=O)N[C@H](c2ccccc2)[C@H](NC(=O)Nc2ccc(C(F)(F)F)cc2)c2ccccc2)cc1` (relative stereo) [Example 14, [S-(R*,R*)] and [R-(R*,R*)]-N-[[[1,2-diphenyl-2-[[[[4-(trifluoromethyl)phenyl]amino]carbonyl]amino]-ethyl]amino]carbonyl]-4-methyl-benzenesulfonamide] yielded a Ki of 188 nM.
`O=C(Nc1ccc([N+](=O)[O-])cc1)N[C@H](c1ccccc1)[C@H](NC(=O)Nc1ccc(C(F)(F)F)cc1)c1ccccc1` (relative stereo) [Example 15, [S-(R*,R*)] and [R-(R*,R*)]-N-[1,2-diphenyl-2-[[[[4-(trifluoromethyl)phenyl]amino]carbonyl]amino]-ethyl]-N'-(4-nitrophenyl)urea] showed a Ki of 309 nM.
Compound `Cc1ccc(S(=O)(=O)NC(=O)N[C@H](c2ccccc2)[C@H](NC(=O)Nc2ccc(Cl)cc2)c2ccccc2)cc1` (relative stereo) [Example 46, [R-(R*,R*)] and [S-(R*,R*)]-N-[[[2-[[[(4-chlorophenyl)-amino]carbonyl]amino]-1,2-diphenylethyl]amino]-carbonyl]-4-methyl-benzenesulfonamide] has a Ki of 188 nM.
For `O=C(Nc1ccc(Cl)cc1)N[C@H](c1ccccc1)[C@H](NC(=O)NS(=O)(=O)c1ccccc1)c1ccccc1` (relative stereo) [Example 47, [R-(R*,R*)] and [S-(R*,R*)]-N-[[[2-[[[4-chlorophenyl)-amino]carbonyl]amino]-1,2-diphenylethyl]amino]-carbonyl]benzenesulfonamide], the Ki was 290 nM.
With `Cc1ccc(NC(=O)N[C@H](c2ccccc2)[C@H](NC(=O)NS(=O)(=O)c2ccc(C)cc2)c2ccccc2)cc1` (relative stereo) [Example 54, [R-(R*,R*)] and [S-(R*,R*)]-4-methyl-N-[[[2-[[[(4-methylphenyl)amino]carbonyl]amino]-1,2-diphenylethyl]amino]carbonyl]benzenesulfonamide] the Ki was 178 nM.
`Cc1ccc(S(=O)(=O)NC(=O)N[C@@H](c2ccccc2)[C@@H](NC(=O)Nc2ccc(Cl)cc2)c2ccccc2)cc1` [Example 64, (+)-[S-(R*,R*)]-N-[[[2-[[[(4-chlorophenyl)amino]-carbonyl]amino]-1,2-diphenylethyl]amino]carbonyl]-4-methyl-urea] gave a Ki of 93 nM.
Work on `O=C(Nc1ccc(Cl)cc1)N[C@@H](c1ccccc1)[C@@H](NC(=O)Nc1ccc(C(F)(F)F)cc1)c1ccccc1` [Example 65, (+)-[S-(R*,R*)]-N-(4-chlorophenyl)-N'-[1,2-diphenyl]-2-[[[[4-(trifluoromethyl)phenyl]amino]carbonyl]amino]-ethyl]urea] yielded a Ki of 293 nM.
